Experimental findings from patent publication US20130316016A1, “ANTIBACTERIAL OR ANTI-ACNE FORMULATIONS CONTAINING USNIC ACID OR AN USNATE AND A METAL SALT” (EVOCUTIS PLC, priority 2010, published 2013) are described below.

Marks after values point to notes of the source that are not given here.

This assay has as its system Propionibacterium acnes NCTC 737. The assay is described as follows: fixed ratio combination MIC/MBC assay. Type of assay: cell-based. The conditions noted are these: for active against P. acnes NCTC 737: compound alone, statement in words; for MBC / MIC: test compound alone; for MBC: P. acnes NCTC 737; for MIC: P. acnes NCTC 737, pH 6.0, anaerobic, 37° C., 72 hours. The protocol:
The test organism used was Propionibacterium acnes NCTC 737. This is a propionibacterial strain and is the type strain of the […]; it is fully susceptible to antibiotics. The propionibacteria are clinically significant due to their involvement in acne. They are also opportunistic pathogens in compromised hosts. Activity observed against these micro-organisms is expected to be a good predictor of activity against acne. The propionibacteria were cultured and maintained on Wilkins-Chalgren Anaerobe Medium (agar and broth) at pH 6.0; all cultures were incubated anaerobically at 37° C. for 72 hours. The following “fixed ratio combination MIC/MBC assay” was carried out to assess antimicrobial activity against the test organism. The method used a sterile 96-well microtitre plate, capable of holding about 200 μl of liquid per well. […] The culture medium was as described above. The wells were inoculated with a liquid suspension of freshly grown micro-organism and incubated under the conditions described above. After incubation, the microtitre plate was examined visually (with the aid of a light box) for cloudiness in each well, which would indicate microbial growth. The minimum inhibitory concentration (MIC) value was recorded as the lowest concentration of test compound alone, or the lowest concentration of the mixture of the two test compounds, required to inhibit microbial growth, i.e. where the liquid in the well remained clear. The assays were conducted in triplicate and included both negative (culture medium with no micro-organisms) and positive (culture medium plus diluting solvent(s) plus micro-organism) controls. […] These samples were then individually sub-cultured on antibiotic-free agar medium, under the incubation conditions described above. Following incubation they were examined visually for microbial growth. […] A fractional inhibitory concentration index (FICI) or fractional bactericidal concentration index (FBCI) was then calculated for each compound in the relevant mixture, and these two indices were added together to give an overall FICI or FBCI to indicate the mode of interaction. Thus for each mixture (of two compounds A and B) which was tested, the FIC for compound A (FICA)=MIC for (A+B)/MIC for A alone. Similarly the FIC for compound B (FICB)=MIC for (A+B)/MIC for B alone. The overall […]. FBCs and FBCIs were calculated in the same manner, using recorded MBC values.

As usually defined, the MBC is the smallest concentration meeting the test's criterion for killing. What is called MIC is the least concentration at which growth counts as inhibited. As to `[Cl][Bi]([Cl])[Cl]` [Bismuth (III) chloride, bismuth (III) chloride], the “active against P. acnes NCTC 737” value is recorded as “active”, the MBC is >19* μg/ml and the MIC amounted to 19 µg/mL.
With `CC(=O)[O-].[Cu+]` [Copper (I) acetate, copper (I) acetate], the MBC was 22.2 µg/mL and the MIC amounted to 11.1 µg/mL.
The like results for `CC(=O)[O-].CC(=O)[O-].[Cu+2]` [Copper (II) acetate, copper (II) acetate] were, in that order, >16.8* μg/ml and 16.8 µg/mL.
Regarding `[Cl][Cu][Cl]` [Copper (II) chloride, copper (II) chloride], the MBC is reported as >22.25* μg/ml and the MIC turned out to be 12.2 µg/mL.
In the case of `O=S(=O)([O-])[O-].[Cu+2]` [Copper (II) sulphate, copper (II) sulphate], the “active against P. acnes NCTC 737” value is on record as “active”, the MBC was >14.5* μg/ml and the MIC is >14.5* μg/ml.
Take `CC(=O)c1c(O)c(C)c(O)c2c1OC1=CC(=O)C(C(C)=O)C(=O)C12C` (stereo not drawn) [Usnic acid, 2,6-diacetyl-7,9-dihydroxy-8,9b-dimethyl-1,3(2H,9bh)-dibenzofurandione]: the “active against P. acnes NCTC 737” value is listed as “active”.
In the case of copper (II) D-gluconate, the MBC is >41.1* μg/ml and the MIC was >41.1* μg/ml.
